What was measured:
[1] = target: PAF (10 nM)-induced aggregation (Cavia porcellus, UniProt P21556); experiment: Inhibitory effect on PAF-induced platelet aggregation (platelet rich plasma, absorbancy method, aggregometer of Born); type: cell-based; conditions: male guinea pig platelet rich plasma
Method: Whole blood of male guinea pig was collected with a 3.8% aqueous solution of trisodium citrate in a proportion of 9:1 (v/v) and the mixture was centrifuged (120 x g) for 10 minutes at room temperature to obtain platelet rich plasma. Using obtained plasma, PAF (10 nM)-induced aggregation was determined by the absorbancy method using an aggrego-meter of Born [cf. J. Physiol., 162, 67 (1962)].
The evaluation is conducted using the concentration of compounds of the present invention required to produce a 50% inhibition of each effect, i.e. IC50.

[2] = tested on: mice; experiment: Acute toxicity by intravenous administration; type: in vivo; conditions: five mice, intravenous to tail vein, dose of 100 mg/Kg
Method: On the other hand, it was confirmed that the acute toxicity of all extent of the compounds of the present invention was more than 100 mg/Kg by intravenous administration. Therefore, glycerol derivatives of the present invention may be considered to be sufficiently safe and suitable for medical use. For example, the mortality (daed/used) in glycerol derivatives of the present invention, i.e. compounds prepared in Example 4 was 0/5, when glycerol derivatives was intravenous administered to tail vein in five mice at the dose of 100 mg/Kg.

Chain of PAF (10 nM)-induced aggregation (P21556 whole entry): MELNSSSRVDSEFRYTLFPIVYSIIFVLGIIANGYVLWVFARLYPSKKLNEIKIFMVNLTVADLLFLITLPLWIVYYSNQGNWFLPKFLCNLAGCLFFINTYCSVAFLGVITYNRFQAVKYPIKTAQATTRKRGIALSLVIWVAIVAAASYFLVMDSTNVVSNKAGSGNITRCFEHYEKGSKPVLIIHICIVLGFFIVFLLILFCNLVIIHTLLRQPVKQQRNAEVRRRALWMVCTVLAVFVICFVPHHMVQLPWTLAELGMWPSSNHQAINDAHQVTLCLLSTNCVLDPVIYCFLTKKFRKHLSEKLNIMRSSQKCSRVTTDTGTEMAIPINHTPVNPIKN

| IC50 [1] [µM] | Structure (SMILES) | mortality (daed/used) [2] |
| --- | --- | --- |
| 5 | CCCCCCCCCCCCCCCCOCC(COc1ccc(CCCC[N+](C)(C)C)cc1)OC(C)=O (centres unmarked) [Example 2] | – |
| – | CCCCCCCCCCCCCCCCOCC(COc1ccc(CCCC[N+](C)(C)C)cc1)NC(=O)OCC(C)C (centres unmarked) [Example 4] | 0/5 |
| 3.7 | CCCCCCCCCCCCCCCCOCC(COCCCc1ccc([N+](C)(C)C)cc1)NC(=O)OCC(C)C (racemic) [Example 9] | – |
| 6.7 | CCCCCCCCCCCCCCCCOCC(COc1ccc(CCCC[N+](C)(C)C)cc1)NC(C)=O (centres unmarked) [Example 5] | – |
| 4.7 | CCCCCCCCCCCCCCCCOCC(COc1ccc(CCCC[N+](C)(C)C)cc1)NC(=O)NC (centres unmarked) [5(a)] | – |

From patent EP0145303A1, “Glycerol derivatives” (ONO PHARMACEUTICAL CO., LTD., priority 1983, dated 1985)
